Results from patent publication US10668049B2, “Methods of treating cognitive decline with transforming growth factor beta inhibitors” (The Regents of the University of California, priority 2008, dated 2020).

System: astrocytic cultures
Test: RT-PCR of astrocytic cultures exposed to albumin
Type: cell-based, rat
Settings: albumin for 24 h
Method: Primary neuronal cortical cultures were prepared from embryonic day 18 rats as reported previously (Kaufer et al., 2004). Briefly, cells were dissociated with a papain solution for 20 min at 37° C., After the removal of the papain solution, the tissue was resuspended in growth medium [MEM with Earle's salts containing 2.5% B27 supplement, 0.1% mito serum extender, 5% fetal bovine serum (FBS), 20 mM glucose, and 5 mM L-glutamine] and dissociated by mechanical trituration. The cells were plated, and after 4 h in vitro the cell culture medium was replaced with neurobasal medium supplemented with 2% B27 supplement and 0.5 mM GlutaMAX™. The cells were maintained in 5% CO2 at 37° C. After 7 days in vitro, cytosine arabinofuranoside (AraC) (10 μM) was added to the cultures. After 10 days in vitro, the cells were incubated with 0.4 mM albumin for 24 h at 37° C. For astrocytic cultures, astrocytcs were isolated from the cerebral cortices of PO rat pups. Cells were dissociated with papain and mechanical trituration. The cells were cultured in high-glucose Dulbecco's modified eagle medium supplemented with 10% FBS and 1% penicillin/streptomycin at 37° C. and in 5% C02 (medium was replaced every 3-4 days). After 10 days in vitro, the culture medium was replaced with serum-free high-glucose DMEM (containing 1% penicillin/streptomycin) for 18 h. The cells were then incubated in scrum-free medium containing 0.4 mM albumin for 24 h at 37° C. For immunostainings cells were washed with phosphate buffered saline (PBS) and fixed in 4% paraformaldehyde for 15 min. The cells were permeabilized with 0.2% Triton X-100 in PBS for 5 min and washed in PBS. They were then incubated with 5% normal donkey serum in PBS for one hour at room temperature followed by overnight incubation at 4° C. with either mouse anti-NeuN (1:1000: Chemicon, Temecula, Calif.) or mouse anti-GFAP (1:1000: Cell Signaling Technology, Beverly, Mass.). The cells were washed in PBS, incubated with donkey anti-mouse Cy3 (1:1000; Jackson ImmunoResearch. West Grove, Pa.) for 1 hour at room temperature, and then counterstained with DAPI.
Total RNA was isolated from the somatosensory cortices of animals treated with DOC or albumin (24 h treatment; n=3) or from primary cultures (astrocytic and neuronal, n=3 independent experiments). Expression levels were determined by real-time reverse transcriptase-PCR (RT-PCR) with an iQ5 detection system (Bio-Rad, Hercules, Calif.) using gene-specific primer pairs. RT-PCR data were analyzed using the PCR Miner program (Zhao and Fernald, 2005), and fold changes in gene expression were represented relative to sham-operated controls (in-vivo samples) or serum-deprived controls (in-vitro, samples). Ribosomal 18S RNA (18S rRNA) was used as an internal control for variations in sample preparation. For samples from in-vivo treatments, RT-PCR was performed with the iScript one-step RT-PCR kit (Bio-Rad). Control RT-PCR reactions were performed without reverse transcriptase to verify amplification of genomic DNA. For in-vitro samples, DNase treatment was applied, followed by first-strand cDNA synthesis (iScript cDNA Synthesis kit, Bio-Rad). PCR reactions were carried out with iQ SYBR Green Supermix (Bio-Rad). Primer specificity was verified by melt curve analysis. The amplification cycles for 18S, Gja1, GS, SLC1A2, SLC1A3 (GLAST) and Kenj10 consisted of 40 cycles of 10 s at 95° C., 30 s at 55° C., and 30 s at 72° C. […]

albumin: bovine serum albumin, used to induce epileptogenesis
significant down-regulation: GS transcript expression | Gja1 transcript expression | Gjb2 transcript expression | Gjb6 transcript expression | S1C1A3 transcript expression
